Patent publication US20020164397A1, “N-[N-(3, 3-DIMETHYLBUTYL)-L-ALPHA-ASPARTYL]-L-PHENYLALANINE 1-METHYL ESTER AS A SWEETENER IN CHEWING GUM” (priority 1998, published 2002)
Several values for one entry are separate records, joined by “and”; a condition that tells them apart may be missing. Identical values can stand only once. Where a SMILES comes first, the peptide text is derived from it.

Tests used:
[1] = Sweetness intensity of chewing gums versus chewing time, trained panel of experts (0-15 scale); type: in vivo; conditions: for average sweetness loss rate at 6-10 minutes / average sweetness intensity at 6-10 minutes / average sweetness loss rate at 10-20 minutes / average sweetness intensity at 10-20 minutes: isosweet sweetener concentrations; for average sweetness loss rate at 6-10 minutes / average sweetness intensity at 6-10 minutes: chewing time 6-10 minutes; for average sweetness intensity at 6-10 minutes / average sweetness intensity at 10-20 minutes: scale 0-15; for average sweetness loss rate at 10-20 minutes / average sweetness intensity at 10-20 minutes: chewing time 10-20 minutes
Protocol: FIG. 1 is a plot of the sweetness intensity of chewing gum prepared with sugar (sucrose), saccharin, aspartame, acesulfame-K, sucralose or neotame as a function of chewing time. Each chewing gum comprises the corresponding sweetener at a sweetener concentration that provides an identical (“isosweet”) degree of sweetness. The sweetness intensity was measured by a trained panel of experts and is expressed as the amount of sweetness based on a sweetness intensity scale of 0-15 units.
The sweetness profile of neotame in chewing gum is illustrated in FIG. 1. Also illustrated in FIG. 1 is a comparison of the sweetness intensity profiles, as measured by a trained panel of experts, of chewing gums prepared with neotame, aspartame, acesulfame-K, saccharin, sucralose, and sugar (sucrose). The sweetness detected is expressed as the amount of sweetness based on a universal sweetness scale of 0-15, and the values were obtained by having subjects of the trained panel chew pieces of gum containing the sweetener and reporting perceived sweetness after various chewing intervals. Since each chewing gum was prepared with an “isosweet” concentration (i.e., same level of sweetness; e.g., 100 ppm neotame and 3000 ppm aspartame are isosweet concentrations) of the respective sweetener and the scale is a measure of absolute sweetness at any point during chewing, the different sweetener profiles can be compared directly to each other.
Table 1 summarizes the sweetness intensity loss rates and average sweetness intensities which occur at a chewing time period of between 6 and 10 minutes and those which occur at a chewing time period between 10 and 20 minutes for a variety of sweeteners. The sweetness intensity loss rate is calculated as the difference in sweetness intensities measured at any two time points divided by the number of minutes of the time interval, and approximates the mathematical slope of the downward trend of sweetness intensity over time.
These values were determined by calculating the average sweetness intensity measured at the specified evaluation times. For example, for the chewing gum comprising neotame at between 6 and 10 minutes, the average sweetness intensity is determined to be (5.2+4.6+4.2)/3=4.7.
The advantage of sweetness extension provided by neotame can also be illustrated by comparison of the sweetness intensity half-lives over time. Table 2 summarizes the half-lives of sweetness intensity of chewing gums comprising different sweeteners after the maximum sweetness intensities (around two minutes) are reached. The half-life is a measure of the time of chewing in which half of the sweetness is lost relative to the time in which the sweetness intensity maximum is achieved.
(§1) The sensory profiling of chewing gum samples was carried out using the Spectrum Method of Descriptive Analysis (Meilgaard, M., Civille, G. V., Carr, B. T, 1999. Sensory Evaluation Techniques, 3rd Ed. CRC Press, New York, p. 173-229). Extensive sensory training was conducted in order to familiarize the panel, consisting of 6-8 individuals, with a product category, exposing the panel to the flavor attributes of the category and in-depth practice by the panelists in the use of a fifteen point scale for describing intensity differences. Once trained, the method enabled the trained panelists to indicate the sensory intensity of either sweetness intensity or flavor intensity in a universal context, where 0 indicates “none” of the attribute present, 2 approximates “threshold” intensities, 5 “slight or low” level, 7.5 “moderate” intensity, 10 “strong” and 15 “extreme”.
Chewing of the gums was initiated by the panel leader while starting a timer. As the time intervals 0.25, 0.5, 1.0, 2.0, 3.0, 4.0, 6.0, 8.0, 10.0, 12.0, 16.0, and 20.0 minutes approached, the panel leader gave panelists a five second warning and then called out the time to rate the attributes. To minimize fatigue, 3-4 samples were evaluated during one session. […]

[2] = Peppermint flavor intensity of chewing gums versus chewing time, trained panel of experts (0-15 scale); type: in vivo
Protocol: FIG. 2 is a plot of peppermint flavor intensity verses chewing time of chewing gums prepared with isosweet levels of aspartame (3000 ppm) and neotame (100 ppm). The chewing gum prepared with aspartame comprised a 1.5 wt % peppermint flavor, while the four neotame chewing gums comprised peppermint flavor at concentrations of 1.5, 1.25, 1.00, and 0.75 wt %. The peppermint flavor intensity was measured by a trained panel of experts and is plotted as a function of chewing time. The peppermint flavor intensity is expressed as the amount of peppermint flavor based on a universal peppermint intensity scale of 0-15 units.
As in the case of sweetness intensity comparisons, since the chewing gums were prepared with an identical amount of flavor and the scale is a measure of absolute flavor at any point during chewing, the different flavor profiles can be compared directly to each other. The rate of flavor intensity loss of the chewing gum comprising neotame is 0.0875 flavor intensity units per minute, while that of chewing gum comprising aspartame was determined to be 0.150 flavor intensity units per minute. Thus, the rate of flavor loss of a chewing gum comprising neotame is nearly half that of the flavor loss for a chewing gum comprising aspartame at an isosweet level and containing an equal concentration of peppermint flavor.
Table 4 summarizes the half-lives of both sweetness and flavor of chewing gums prepared with aspartame (3000 ppm) with 1.5 wt % flavor and neotame (100 ppm) with 1.5, 1.25, 1.00, and 0.75 wt % flavor amounts. The half-life is the time in minutes for the intensity to fall to half of its maximum value (sweetness, 2 minutes; flavor, 4 minutes).
as §1
Chewing of the gums was initiated by the panel leader while starting a timer. As the time intervals 0.25, 0.5, 1.0, 2.0, 3.0, 4.0, 6.0, 8.0, 10.0, 12.0, 16.0, and 20.0 minutes approached, the panel leader gave panelists a five second warning and then called out the time to rate the attributes. To minimize fatigue, 3-4 samples were evaluated during one session. Samples were assessed in duplicate, presented in a balanced order, unwrapped in two ounce plastic cups, and randomly coded with three-digit numbers. The panelists were given a ten minute break between samples to minimize carry-over effects. Water, Mott's Natural Applesauce and unsalted soda crackers were given as palate cleansers.
The data was analyzed for standard ANOVA for across sample comparison of attributes at each chew time. Data was then plotted as a graph of intensities vs. chewing time yielding either a sweetness or flavor profile for the entire chew time.

[3] = relative to sucrose; cited from earlier work
[4] = chewing time in which half of the sweetness is lost relative to the sweetness intensity maximum, isosweet concentrations
[5] = 1.50% flavor, time for intensity to fall to half of its maximum (4 minutes), aspartame 3000 ppm / neotame 100 ppm
[6] = 1.50% peppermint flavor, isosweet aspartame 3000 ppm / neotame 100 ppm
[7] = 1.50% flavor, time for intensity to fall to half of its maximum (2 minutes), aspartame 3000 ppm / neotame 100 ppm
[8] = 0.75% peppermint flavor, neotame 100 ppm
[9] = 1.00% peppermint flavor, neotame 100 ppm
[10] = 1.25% peppermint flavor, neotame 100 ppm
[11] = flavor amounts less than full-flavored (reduced to at least around 50%)
[12] = full-flavored chewing gum, about 4 to about 20 minutes of chewing

CC1=CC(=O)[N-]S(=O)(=O)O1.[K+] [acesulfame-K, the potassium salt of 3,4-dihydro-6-methyl-1,2,3-oxathiazine-4-one-2,2-dioxide]
average sweetness loss rate at 6-10 minutes ([1]; chewing gum): 0.45 intensity units/min | average sweetness intensity at 6-10 minutes ([1]; chewing gum): 4.3 intensity units | average sweetness loss rate at 10-20 minutes ([1]; chewing gum): 0.26 intensity units/min | average sweetness intensity at 10-20 minutes ([1]; chewing gum): 2.0 intensity units | half-life of sweetness intensity [1, 4]: 5.5 min

COC(=O)[C@H](Cc1ccccc1)NC(=O)[C@@H](N)CC(=O)O [aspartame] (HELM PEPTIDE1{D.F.[CO[*:1]]}$$$$V2.0)
half-life of peppermint flavor intensity [2, 5]: 19.7 min | average flavor intensity at 4-20 minutes [2, 6]: 4.2 intensity units | flavor loss rate at 4-20 minutes [2, 6]: 0.150 flavor intensity units per minute | half-life of sweetness intensity [1, 7]: 7.6 min | average sweetness loss rate at 6-10 minutes ([1]; chewing gum): 0.52 intensity units/min | average sweetness intensity at 6-10 minutes ([1]; chewing gum): 4.6 intensity units | average sweetness loss rate at 10-20 minutes ([1]; chewing gum): 0.25 intensity units/min | average sweetness intensity at 10-20 minutes ([1]; chewing gum): 2.3 intensity units | half-life of sweetness intensity [1, 4]: 6.4 min

COC(=O)[C@H](Cc1ccccc1)NC(=O)[C@H](CC(=O)O)NCCC(C)(C)C [neotame, N-[N-(3,3-dimethylbutyl)-L-α-aspartyl]-L-phenylalanine 1-methyl ester]
half-life of peppermint flavor intensity ([2]; 0.75% flavor, neotame 100 ppm): 33.1 min | average flavor intensity at 4-20 minutes [2, 8]: 3.9 intensity units | flavor loss rate at 4-20 minutes [2, 8]: 0.070 flavor intensity units per minute | half-life of peppermint flavor intensity ([2]; 1.00% flavor, neotame 100 ppm): 31.7 min | average flavor intensity at 4-20 minutes [2, 9]: 4.0 intensity units | flavor loss rate at 4-20 minutes [2, 9]: 0.075 flavor intensity units per minute | half-life of peppermint flavor intensity ([2]; 1.25% flavor, neotame 100 ppm): 31.3 min | average flavor intensity at 4-20 minutes [2, 10]: 4.2 intensity units | flavor loss rate at 4-20 minutes [2, 10]: 0.088 flavor intensity units per minute | half-life of peppermint flavor intensity [2, 5]: 44.3 min | average flavor intensity at 4-20 minutes [2, 6]: 4.6 intensity units | flavor loss rate at 4-20 minutes [2, 6]: 0.0875 flavor intensity units per minute and 0.088 flavor intensity units per minute | average flavor intensities at 4-20 minutes ([2]; chewing gums comprising neotame having less flavor amounts than 1.5%): around 4.0 intensity units | average flavor intensity [2, 11]: ≥ 3.5 flavor intensity units | average flavor loss rate [2, 11]: less than 0.1 flavor intensity units per minute | average flavor intensity [2, 12]: ≥ 4 flavor intensity units | average flavor loss rate [2, 12]: less than 0.1 flavor intensity units per minute | half-life of sweetness intensity ([1]; 0.75% flavor, neotame 100 ppm): 16.9 min | half-life of sweetness intensity ([1]; 1.00% flavor, neotame 100 ppm): 20.7 min | half-life of sweetness intensity ([1]; 1.25% flavor, neotame 100 ppm): 17.2 min | half-life of sweetness intensity [1, 7]: 17.0 min | sweetness intensity at 6 minutes ([1]; chewing gum, 100 ppm neotame, 6 minutes of chewing): 5.2 sweetness intensity units | sweetness intensity at 10 minutes ([1]; chewing gum, 100 ppm neotame, 10 minutes of chewing): 4.2 sweetness intensity units | sweetness intensity at 8 minutes ([1]; chewing gum, 100 ppm neotame, evaluation time between 6 and 10 minutes): 4.6 sweetness intensity units | half-life of sweetness intensity [1, 4]: 14.9 min | sweetness potency (× sweeter than sucrose) [3]: about 8000 ×

O=C1NS(=O)(=O)c2ccccc21 [saccharin]
average sweetness loss rate at 6-10 minutes ([1]; chewing gum): 0.52 intensity units/min | average sweetness intensity at 6-10 minutes ([1]; chewing gum): 3.1 intensity units | average sweetness loss rate at 10-20 minutes ([1]; chewing gum): 0.15 intensity units/min | average sweetness intensity at 10-20 minutes ([1]; chewing gum): 1.2 intensity units | half-life of sweetness intensity [1, 4]: 4.5 min

OC[C@H]1O[C@H](O[C@]2(CCl)O[C@H](CCl)[C@@H](O)[C@@H]2O)[C@H](O)[C@@H](O)[C@H]1Cl [sucralose]
average sweetness loss rate at 6-10 minutes ([1]; chewing gum): 0.52 intensity units/min | average sweetness intensity at 6-10 minutes ([1]; chewing gum): 3.3 intensity units | average sweetness loss rate at 10-20 minutes ([1]; chewing gum): 0.16 intensity units/min | average sweetness intensity at 10-20 minutes ([1]; chewing gum): 1.3 intensity units | half-life of sweetness intensity [1, 4]: 4.5 min

OC[C@H]1O[C@@](CO)(O[C@H]2O[C@H](CO)[C@@H](O)[C@H](O)[C@H]2O)[C@@H](O)[C@@H]1O [sucrose]
average sweetness loss rate at 6-10 minutes ([1]; chewing gum): 0.45 intensity units/min | average sweetness intensity at 6-10 minutes ([1]; chewing gum): 2.1 intensity units | average sweetness loss rate at 10-20 minutes ([1]; chewing gum): 0.11 intensity units/min | average sweetness intensity at 10-20 minutes ([1]; chewing gum): 0.6 intensity units | half-life of sweetness intensity [1, 4]: 3.5 min
